What was measured:
Assay type in all cases: in vivo
[1] = system: cotton, variety D&PL 555; assay: % desiccation of cotton leaves, field trial
Procedure: (§1) The trial was performed on cotton, variety D&PL 555. The formulated test compounds were diluted to the appropriate concentrations with water to which a crop oil concentrate (1% to 2% v/v) or a non-ionic surfactant (0.25% v/v) was added. The application of the test composition as a cotton plant growth regulator was performed using pressurized, over-the-top spray equipment consisting of a research scale boom sprayer. Deposit of the test composition was primarily to the top of the cotton plants, minimizing spray deposition to lower branches, leaves and fruit. The finished spray volume was 10 gallons per acre, with sprayer nozzle design, orientation and nozzle pressures chosen to prevent spray drift. Applications were made at first sign of cotton boll opening and at 15%, 20% and 40% open bolls.
(§2) The experimental design used randomized plots with 1 to 4 treatment rates of test composition and from 1 to 10 replications depending on the test (sees tables below). The size of each experimental plot was about 15 m^2. Testing was performed in Texas, North Carolina, Mississippi and Georgia.
(§3) Percent desiccation, percent defoliation, percent terminal control and percent open bolls were evaluated at 7 and 14 days after application (DAA) of the test composition. Inspection of cotton plants for insect control of armyworm larvae was performed at 2 DAA and insect damage to bolls was performed at the time of harvest
Desiccation refers to leaves or portions of leaves dried to debris following tissue death. […] An evaluation of the condition of leaves in the untreated check plots were observed. Then the test plots were individually evaluated. The percent of all leaves completely or partially desiccated by the test application were recorded, based upon live leaves and leaf debris within the test plot relative to foliage present in the untreated plot.
(§4) The results, shown as the mean of the indicated number of replications, were compared with results observed in the same trials with an untreated control.

[2] = system: Bollworm (Heliothis zea); assay: % bolls damaged by bollworm at harvest; settings: 15% open boll application, 0.006 lb ai/a, 1 replicate
Procedure: as §1, with “bolls. […]” for “bolls.”
(§5) Percent desiccation, percent defoliation, percent terminal control and percent open bolls were evaluated at 7 and 14 days after application (DAA) of the test composition. […]
(§6) Bollworm (Heliothis zea) and stinkbug (Euschistus servus) insect control was measured by examining the bolls of 100 cotton plants, 50 cotton plants in two representative locations with in the treatment plot, for injury caused by either bollworms or by stinkbugs. The percent damage was calculated by dividing the number of damaged bolls by the total number of bolls on the plants multiplied by 100. […]

[3] = system: cotton, variety D&PL 555; assay: Cotton yield; settings: 5 replicates
Procedure: as §1, §2, §4

[4] = system: cotton, variety D&PL 555; assay: % terminal control of cotton plants, field trial
Procedure: as §1, §2, §3
Terminal control refers to crop response to the top-most vertical bud and shoots growth. Percent terminal control estimates the proportion of these upper-most growth structures desiccated per 100 cotton plants. Fifty cotton plants in two representative locations within a treatment plot were chosen to determine percent control. Each terminal of the 50 plants in the 2 locations was evaluated, and the total number desiccated per 100 plants was recorded as percent terminal control.
as §4

[5] = system: cotton, variety D&PL 555; assay: % defoliation of cotton plants, field trial
Procedure: as §1, §2, §3
Defoliation refers to removal of leaves. Percent defoliation rating approximates the proportion of leaves of all sizes shed per 100 leaves present prior to application of the cotton growth regulator compound. An evaluation of the foliage in the untreated check plots was first undertaken. Then the test plots were individually evaluated. The percent of leaves dropped by the plants in the treated plot was determined using observations within the plot and comparisons to foliage in the untreated plot.
as §4

[6] = system: Fall Armyworms (Spodoptera frugiperda); assay: Number of fall armyworms on cotton plants; settings: 15% open boll application; 0.004 lb ai/a; 2 DAA; 3 replicates; insects per plant
Procedure: as §1
The experimental design used randomized plots with 1 to 4 treatment rates of test composition and from 1 to 10 replications depending on the test (sees tables below). […]
as §5
The presence of fall armyworms (Spodoptera frugiperda) was determined by examining 20 cotton plants within each of 3 replicates of the treatment plots for fall armyworm. The number of insects per plant was calculated by dividing the total number of insects found by 60. […]

[7] = system: Brown Stinkbug (Euschistus servus); assay: % bolls damaged by brown stinkbug at harvest; settings: 15% open boll application, 0.006 lb ai/a, 1 replicate
Procedure: as §1, with “bolls. […]” for “bolls.”
as §5, §6

[8] = 15% open boll application, 0.004 lb ai/a, 14 DAA, 10 replicates
[9] = 15% open boll application, 0.006 lb ai/a, 14 DAA, 10 replicates
[10] = 15% open boll application, 0.008 lb ai/a, 14 DAA, 10 replicates
[11] = 15% open boll application, 0.01 lb ai/a, 14 DAA, 10 replicates
[12] = 20% open boll application, 0.002 lb ai/a, 7 DAA, 3 replicates
[13] = 20% open boll application, 0.002 lb ai/a, 14 DAA, 2 replicates
[14] = 20% open boll application, 0.004 lb ai/a, 7 DAA, 3 replicates
[15] = 20% open boll application, 0.004 lb ai/a, 14 DAA, 2 replicates
[16] = 20% open boll application, 0.006 lb ai/a, 7 DAA, 3 replicates
[17] = 20% open boll application, 0.006 lb ai/a, 14 DAA, 2 replicates
[18] = 20% open boll application, 0.008 lb ai/a, 7 DAA, 3 replicates
[19] = 20% open boll application, 0.008 lb ai/a, 14 DAA, 2 replicates
[20] = 40% open boll application, 0.004 lb ai/a, 7 DAA, 1 replicate
[21] = 40% open boll application, 0.006 lb ai/a, 7 DAA, 1 replicate
[22] = 40% open boll application, 0.008 lb ai/a, 7 DAA, 1 replicate
[23] = first open boll application, 0.002 lb ai/a, 7 DAA, 4 replicates
[24] = first open boll application, 0.002 lb ai/a, 14 DAA, 4 replicates
[25] = first open boll application, 0.004 lb ai/a, 7 DAA, 4 replicates
[26] = first open boll application, 0.004 lb ai/a, 14 DAA, 4 replicates
[27] = first open boll application, 0.006 lb ai/a, 7 DAA, 4 replicates
[28] = first open boll application, 0.006 lb ai/a, 14 DAA, 4 replicates
[29] = first open boll application, 0.008 lb ai/a, 7 DAA, 4 replicates
[30] = first open boll application, 0.008 lb ai/a, 14 DAA, 4 replicates

## CCOC(=O)C(Cl)Cc1cc(-n2nc(C)n(C(F)F)c2=O)c(F)cc1Cl (centres unmarked) [carfentrazone-ethyl, ethyl 2-chloro-3-[2-chloro-5-(4-difluoromethyl-3-methyl-5-oxo-4,5-dihydro-[1,2,4]-triazol-1-yl)-4-fluorophenyl]propionate]
[1]; [8]
  % Desiccation: 29%
[1]; [9]
  % Desiccation: 33%
[1]; [10]
  % Desiccation: 37%
[1]; [11]
  % Desiccation: 38%
[1]; [12]
  % Desiccation: 8%
[1]; [13]
  % Desiccation: 13%
[1]; [14]
  % Desiccation: 17%
[1]; [15]
  % Desiccation: 23%
[1]; [16]
  % Desiccation: 21%
[1]; [17]
  % Desiccation: 22%
[1]; [18]
  % Desiccation: 24%
[1]; [19]
  % Desiccation: 22%
[1]; [20]
  % Desiccation: 6%
[1]; [21]
  % Desiccation: 5%
[1]; [22]
  % Desiccation: 9%
[1]; [23]
  % Desiccation: 15%
[1]; [24]
  % Desiccation: 18%
[1]; [25]
  % Desiccation: 25%
[1]; [26]
  % Desiccation: 25%
[1]; [27]
  % Desiccation: 28%
[1]; [28]
  % Desiccation: 28%
[1]; [29]
  % Desiccation: 33%
[1]; [30]
  % Desiccation: 32%
[2]
  % Bolls Damaged by Bollworm (Heliothis zea): 1.75%
[3]; 20% open bolls application, 0.002 lb ai/a
  Cotton yield: 1168 Lb lint/Acre
[3]; 20% open bolls application, 0.004 lb ai/a
  Cotton yield: 1128 Lb lint/Acre
[3]; 20% open bolls application, 0.006 lb ai/a
  Cotton yield: 1107 Lb lint/Acre
[3]; 20% open bolls application, 0.008 lb ai/a
  Cotton yield: 1178 Lb lint/Acre
[3]; first open boll application, 0.002 lb ai/a
  Cotton yield: 1172 Lb lint/Acre
[3]; first open boll application, 0.004 lb ai/a
  Cotton yield: 1004 Lb lint/Acre
[3]; first open boll application, 0.006 lb ai/a
  Cotton yield: 1152 Lb lint/Acre
[3]; first open boll application, 0.008 lb ai/a
  Cotton yield: 1167 Lb lint/Acre
[4]; 15% open boll application, 0.004 lb ai/a, 14 DAA, 9 replicates
  % Terminal Control: 63%
[4]; 15% open boll application, 0.006 lb ai/a, 14 DAA, 9 replicates
  % Terminal Control: 74%
[4]; 15% open boll application, 0.008 lb ai/a, 14 DAA, 9 replicates
  % Terminal Control: 79%
[4]; 15% open boll application, 0.01 lb ai/a, 14 DAA, 9 replicates
  % Terminal Control: 82%
[4]; 20% open boll application, 0.002 lb ai/a, 7 DAA, 2 replicates
  % Terminal Control: 50%
[4]; [13]
  % Terminal Control: 49%
[4]; 20% open boll application, 0.004 lb ai/a, 7 DAA, 2 replicates
  % Terminal Control: 67%
[4]; [15]
  % Terminal Control: 64%
[4]; 20% open boll application, 0.006 lb ai/a, 7 DAA, 2 replicates
  % Terminal Control: 66%
[4]; [17]
  % Terminal Control: 64%
[4]; 20% open boll application, 0.008 lb ai/a, 7 DAA, 2 replicates
  % Terminal Control: 60%
[4]; [19]
  % Terminal Control: 63%
[4]; first open boll application, 0.002 lb ai/a, 7 DAA, 3 replicates
  % Terminal Control: 27%
[4]; first open boll application, 0.002 lb ai/a, 14 DAA, 3 replicates
  % Terminal Control: 44%
[4]; first open boll application, 0.004 lb ai/a, 7 DAA, 3 replicates
  % Terminal Control: 46%
[4]; first open boll application, 0.004 lb ai/a, 14 DAA, 3 replicates
  % Terminal Control: 58%
[4]; first open boll application, 0.006 lb ai/a, 7 DAA, 3 replicates
  % Terminal Control: 47%
[4]; first open boll application, 0.006 lb ai/a, 14 DAA, 3 replicates
  % Terminal Control: 59%
[4]; first open boll application, 0.008 lb ai/a, 7 DAA, 3 replicates
  % Terminal Control: 50%
[4]; first open boll application, 0.008 lb ai/a, 14 DAA, 3 replicates
  % Terminal Control: 58%
[5]; [8]
  % Defoliation: 28%
[5]; [9]
  % Defoliation: 33%
[5]; [10]
  % Defoliation: 39%
[5]; [11]
  % Defoliation: 41%
[5]; [12]
  % Defoliation: 9%
[5]; 20% open boll application, 0.002 lb ai/a, 14 DAA, 3 replicates
  % Defoliation: 17%
[5]; [14]
  % Defoliation: 25%
[5]; 20% open boll application, 0.004 lb ai/a, 14 DAA, 3 replicates
  % Defoliation: 38%
[5]; [16]
  % Defoliation: 22%
[5]; 20% open boll application, 0.006 lb ai/a, 14 DAA, 3 replicates
  % Defoliation: 34%
[5]; [18]
  % Defoliation: 24%
[5]; 20% open boll application, 0.008 lb ai/a, 14 DAA, 3 replicates
  % Defoliation: 36%
[5]; [20]
  % Defoliation: 61%
[5]; [21]
  % Defoliation: 58%
[5]; [22]
  % Defoliation: 67%
[5]; [23]
  % Defoliation: 6%
[5]; [24]
  % Defoliation: 15%
[5]; [25]
  % Defoliation: 12%
[5]; [26]
  % Defoliation: 25%
[5]; [27]
  % Defoliation: 13%
[5]; [28]
  % Defoliation: 28%
[5]; [29]
  % Defoliation: 12%
[5]; [30]
  % Defoliation: 23%
[6]
  Number of insects (Fall Armyworms, Spodoptera frugiperda): 0
[7]
  % Bolls Damaged by Brown Stinkbug (Euschistus servus): 2.25%

— US20090062122A1, “Cotton Growth Regulator” (FMC Corporation, priority 2006, published 2009)
